# ChEMBL document CHEMBL1201862, “PubChem BioAssay data set” (2004)
# Active and inactive are the calls of the source.
# Columns and labels:
# NADPH oxidase 1 [1] = target: T1, NADPH oxidase 1 (Homo sapiens, UniProt Q9Y5S8); experiment: Late stage results from the probe development effort to identify inhibitors of NOX1: HEK/293 IC50. [Related pubchem assays: 1796 (Summary AID (NOX1)), 2752 (Primary screen (NOX1 inhibitors, synthesized analogs set 2)), 2664 (Primary screen (NOX1 inhibitors, synthesized analogs)), 1792 (Primary Screen (NOX1)), 2545 (Confirmation screen (NOX1 …; assay type: functional
# T1 sequence (Q9Y5S8 whole entry): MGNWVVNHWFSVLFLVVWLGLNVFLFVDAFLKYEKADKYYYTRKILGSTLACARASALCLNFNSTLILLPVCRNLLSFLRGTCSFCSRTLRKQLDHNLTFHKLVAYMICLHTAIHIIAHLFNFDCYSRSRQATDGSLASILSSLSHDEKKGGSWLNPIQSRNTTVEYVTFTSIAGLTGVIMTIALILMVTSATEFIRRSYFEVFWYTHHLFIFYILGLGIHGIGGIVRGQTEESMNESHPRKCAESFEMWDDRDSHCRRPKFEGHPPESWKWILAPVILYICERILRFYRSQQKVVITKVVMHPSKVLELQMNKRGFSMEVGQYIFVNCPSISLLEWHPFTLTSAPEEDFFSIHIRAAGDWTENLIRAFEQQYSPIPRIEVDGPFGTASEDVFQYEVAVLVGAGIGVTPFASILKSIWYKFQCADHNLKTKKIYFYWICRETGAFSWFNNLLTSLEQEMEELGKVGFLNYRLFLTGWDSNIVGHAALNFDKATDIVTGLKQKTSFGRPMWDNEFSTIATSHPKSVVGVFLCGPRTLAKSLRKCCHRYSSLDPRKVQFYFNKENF
# NADPH oxidase 1 [2] = target: T1, NADPH oxidase 1; experiment: potency of NOX1 inhibition in cells – cell-based, luminescence, cherry picks 2, dose response (AID 434997); assay type: functional
# [3] = IC50 of Artemis nuclease activity blockers – biochemical, fluorescence intensity, dose response (AID 720701); assay type: functional;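 also: Artemis endonuclease enzyme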
# [4] = HIV-1 Vif–A3G interaction blockers – biochemical, TR-FRET, GST-Vif 1-94, biotin-A3G peptide, dose response retest, primary screen (AID 1117319); assay type: functional;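 also: TR-FRET signal of purified GST-Vif binding a biotinylated A3G peptide; inhibitors lower the FRET signal by blocking Vif and A3G binding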
# Estrogen receptor beta = Estrogen receptor beta (Homo sapiens, UniProt Q92731);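 also: recombinant ER-beta bound to coactivator SRC1 peptide in presence of estradiol agonist; inhibitors block coactivator peptide binding and lower the FRET signal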
# Sequence of Estrogen receptor beta (Q92731 whole entry): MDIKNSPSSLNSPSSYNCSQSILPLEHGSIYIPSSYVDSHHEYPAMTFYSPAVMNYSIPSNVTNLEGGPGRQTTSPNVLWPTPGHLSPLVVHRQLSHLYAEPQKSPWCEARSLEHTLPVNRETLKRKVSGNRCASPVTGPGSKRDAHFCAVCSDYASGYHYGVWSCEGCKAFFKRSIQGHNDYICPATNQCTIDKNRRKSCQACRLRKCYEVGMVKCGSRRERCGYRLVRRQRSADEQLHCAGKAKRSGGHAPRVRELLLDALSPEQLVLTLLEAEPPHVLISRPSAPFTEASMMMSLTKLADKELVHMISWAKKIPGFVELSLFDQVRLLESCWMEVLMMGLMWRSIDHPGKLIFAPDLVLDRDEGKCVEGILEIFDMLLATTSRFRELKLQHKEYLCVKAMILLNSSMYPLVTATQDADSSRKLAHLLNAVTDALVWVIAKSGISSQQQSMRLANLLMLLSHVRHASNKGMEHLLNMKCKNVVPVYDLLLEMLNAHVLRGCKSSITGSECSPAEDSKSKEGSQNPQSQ
# [5] = M. tuberculosis growth inhibition, HTS (AID 449762); assay type: functional
# [6] = IC50 of insulin release inhibition, rat insulinoma INS-1E line, 5 mM glucose, cell-based (AID 1117331); assay type: functional
# INS1 = experiment: INS-1E survival protection against cytokine death – cell-based, luminescence, retest, dose response (AID 449756); assay type: functional; settings: Rattus norvegicus;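 also: cell death triggered by IL-1 beta plus TNF-alpha plus IFN-gamma mixture; protective hits raise ATP signal compared with cytokine alone wells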
# [7] = NIH-3T3 fibroblast cytotoxicity, dose response, cytotoxicity control, cell-based, fluorescence, Alamar Blue, secondary assay (AID 2327); assay type: functional;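 also: NIH-3T3 mouse fibroblasts cultured with fluconazole at 8 µg/mL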
# BJ = experiment: growth inhibition of engineered Ras-driven BJ cells – cell-based, alamar blue fluorescence, cherrypicked samples, dose response (AID 2631); assay type: functional; settings: Homo sapiens;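 also: confirmatory dose-response assay in RAS-dependent BJ fibroblasts engineered with TERT, LT and ST, with cytotoxicity read by fluorescence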
# [8] = target: E3 ubiquitin-protein ligase Mdm2 (Homo sapiens, UniProt Q00987); experiment: MDM2-luc reporter signal enhancers, multi-concentration potency testing, MDM2 ubiquitin-protein ligase inhibitor program, whole-cell format, luminescence detection, 384-well microplate (AID 1394); assay type: functional;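 also: MDM2 E3 inhibitors raise luminescence so EC50 is for signal enhancement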
# Sequence of E3 ubiquitin-protein ligase Mdm2 (Q00987 whole entry): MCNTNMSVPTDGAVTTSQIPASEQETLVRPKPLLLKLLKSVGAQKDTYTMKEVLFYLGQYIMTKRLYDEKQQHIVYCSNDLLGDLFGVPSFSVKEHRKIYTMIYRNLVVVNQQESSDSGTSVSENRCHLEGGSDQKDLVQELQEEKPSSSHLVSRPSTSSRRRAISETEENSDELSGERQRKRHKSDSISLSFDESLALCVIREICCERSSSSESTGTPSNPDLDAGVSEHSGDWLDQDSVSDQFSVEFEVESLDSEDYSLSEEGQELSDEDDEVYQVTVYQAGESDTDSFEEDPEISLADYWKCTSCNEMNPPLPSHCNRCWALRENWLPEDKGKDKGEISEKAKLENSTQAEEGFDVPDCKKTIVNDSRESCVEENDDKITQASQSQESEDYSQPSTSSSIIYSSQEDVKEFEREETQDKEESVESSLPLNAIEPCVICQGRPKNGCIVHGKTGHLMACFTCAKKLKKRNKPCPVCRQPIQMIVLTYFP
# [9] = general cell-killing toxicity readout – plate reader, dry powder samples, cytotoxicity control for PAX8 inhibitor project, dose response (AID 743021); assay type: functional, cell-based
# Paired box protein Pax-8 = Paired box protein Pax-8 (Homo sapiens, UniProt Q06710); experiment: PAX8 transcriptional activity inhibition in RMG-I – RMG-I cells, luciferase, cherry-pick, dose response (AID 687027); assay type: functional, cell-based;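 also: luciferase reporter driven by Pax8 target thyroperoxidase promoter measured by SteadyGlo luminescence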
# Sequence of Paired box protein Pax-8 (Q06710 whole entry): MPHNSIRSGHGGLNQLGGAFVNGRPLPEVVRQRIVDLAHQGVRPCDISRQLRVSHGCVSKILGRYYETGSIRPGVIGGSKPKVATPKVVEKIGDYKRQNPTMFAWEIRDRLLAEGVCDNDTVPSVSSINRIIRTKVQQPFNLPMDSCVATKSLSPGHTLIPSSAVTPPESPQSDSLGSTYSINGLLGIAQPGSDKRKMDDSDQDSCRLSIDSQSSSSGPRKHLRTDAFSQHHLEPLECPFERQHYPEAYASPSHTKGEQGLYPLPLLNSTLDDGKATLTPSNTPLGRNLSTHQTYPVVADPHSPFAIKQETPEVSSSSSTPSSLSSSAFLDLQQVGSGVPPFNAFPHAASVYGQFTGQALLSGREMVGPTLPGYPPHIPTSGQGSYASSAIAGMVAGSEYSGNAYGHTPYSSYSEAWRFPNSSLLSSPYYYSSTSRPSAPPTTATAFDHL
# [10] = Late-stage results from the probe development effort to identify antagonists of arginine vasopressin receptor 1a (AVPR1a): fluorescence-based cell-based dose response OXTR inhibition counterscreen assay.; assay type: functional
# Vasopressin V1b receptor = Vasopressin V1b receptor (Homo sapiens, UniProt P47901); experiment: Late-stage results from the probe development effort to identify antagonists of arginine vasopressin receptor 1a (AVPR1a): fluorescence-based cell-based dose response AVPR1b inhibition counterscreen assay.; assay type: functional
# Sequence of Vasopressin V1b receptor (P47901 whole entry): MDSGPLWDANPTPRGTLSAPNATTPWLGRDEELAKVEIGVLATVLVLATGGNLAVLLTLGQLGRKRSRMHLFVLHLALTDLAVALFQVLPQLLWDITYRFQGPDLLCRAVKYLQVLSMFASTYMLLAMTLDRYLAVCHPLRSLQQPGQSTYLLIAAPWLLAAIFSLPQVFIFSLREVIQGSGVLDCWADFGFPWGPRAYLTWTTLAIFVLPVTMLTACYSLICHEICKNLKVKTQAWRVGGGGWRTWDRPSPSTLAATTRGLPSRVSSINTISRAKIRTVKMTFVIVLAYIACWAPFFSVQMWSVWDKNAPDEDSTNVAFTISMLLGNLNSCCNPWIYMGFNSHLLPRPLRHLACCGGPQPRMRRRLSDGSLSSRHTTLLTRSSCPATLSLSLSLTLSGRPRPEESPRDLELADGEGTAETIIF
# [11] = Late-stage results from the probe development effort to identify antagonists of arginine vasopressin receptor 1a (AVPR1a): fluorescence-based cell-based dose response AVPR1a inhibition assay.; assay type: functional
# Vasopressin V2 receptor = Vasopressin V2 receptor (Homo sapiens, UniProt P30518); experiment: Late-stage results from the probe development effort to identify antagonists of arginine vasopressin receptor 1a (AVPR1a): fluorescence-based cell-based dose response AVPR2 inhibition counterscreen assay.; assay type: functional
# Sequence of Vasopressin V2 receptor (P30518 whole entry): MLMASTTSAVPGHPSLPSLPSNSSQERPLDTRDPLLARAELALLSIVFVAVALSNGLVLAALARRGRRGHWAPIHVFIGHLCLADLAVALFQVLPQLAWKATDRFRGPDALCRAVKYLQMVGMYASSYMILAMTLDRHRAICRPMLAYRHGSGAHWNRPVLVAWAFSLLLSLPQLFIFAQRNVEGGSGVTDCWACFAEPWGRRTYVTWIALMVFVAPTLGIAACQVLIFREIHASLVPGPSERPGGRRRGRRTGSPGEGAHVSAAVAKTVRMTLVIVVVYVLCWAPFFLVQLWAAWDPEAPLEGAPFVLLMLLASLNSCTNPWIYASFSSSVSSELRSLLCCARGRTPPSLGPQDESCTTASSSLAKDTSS
smiles,measurement,setting,value
COc1cc(-c2nc(-c3ccccc3)c(-c3ccccc3)[nH]2)ccc1O,IC50,NADPH oxidase 1 [1],1.81 µM (active)
same,IC50,NADPH oxidase 1 [2],0.37 µM (active)
COc1ccc(NC(=O)CSc2nc3c(cc2C#N)CN(C)CC3)cc1,IC50,[3],> 20 µM (inactive)
same,IC50,[4],> 100 µM (active)
same,IC50,Estrogen receptor beta,> 50 µM (not active)
Nc1ccc2c(c1)oc1ccccc12,IC50,[5],> 100 µM (active)
COCCCOc1ccnc(C[S+]([O-])c2nc3ccccc3[nH]2)c1C (configuration not stated) [RABEPRAZOLE SODIUM],IC50,[6],> 33.3 µM (inactive)
CC(=O)/C=C/n1c(=S)oc2ccccc21,AC50,INS1,8.12 µM (active)
same,EC50,[7],3.97 µM (inconclusive)
same,EC50,BJ,0.508 µM (inconclusive)
same,EC50,[8],0.01 µM (not active)
same,AC50,[9],10 µM (active)
same,AC50,Paired box protein Pax-8,5.95 µM (active)
COc1ccc(N(CC2CC2)C(=O)N2CCN(c3ncc(Cl)cc3Cl)CC2)cc1,IC50,[10],0.1 µM (active)
same,IC50,Vasopressin V1b receptor,3.1 µM (active)
same,IC50,[11],0.0166 µM (active)
same,IC50,Vasopressin V2 receptor,2.78 µM (active)
